Patent publication US20250041380A1, “R[…] FOR SARS-COV2 DISEASE” (priority 2021, published 2025)
Where two headings read alike, the source gives them in different places.

Tests used:
Lung cells (A549) = type: cell-based, Human
Immune cells (THP-1) = type: cell-based, Human

Q: Which results are given for `CCN(CCO)CCCC(C)Nc1ccnc2cc(Cl)ccc12` (centres unmarked) [Hydroxychloroquine sulphate]?
A: Inhibition of IL-6 (Lung cells (A549); 0.1 µM): 34.7%; Inhibition of IL-8 (Lung cells (A549); 0.1 µM): 54.4%; Inhibition of IL-6 (Lung cells (A549); 1 µM): 53.4%; Inhibition of IL-8 (Lung cells (A549); 1 µM): 40.8%; Inhibition of IL-6 (Lung cells (A549); 5 µM): 66.5%; Inhibition of IL-8 (Lung cells (A549); 5 µM): 56.7%; Inhibition of IL-6 (Lung cells (A549); 10 µM): 60.7%; Inhibition of IL-8 (Lung cells (A549); 10 µM): 44.0%; Inhibition of IL-6 (Lung cells (A549); 20 µM): 71.4%; Inhibition of IL-8 (Lung cells (A549); 20 µM): 65.0%; Inhibition of IL-6 (Immune cells (THP-1); 0.1 µM): 90.7%; Inhibition of IL-8 (Immune cells (THP-1); 0.1 µM): 23.2%; Inhibition of IL-6 (Immune cells (THP-1); 1 µM): 83.9%; Inhibition of IL-8 (Immune cells (THP-1); 1 µM): 36.8%; Inhibition of IL-6 (Immune cells (THP-1); 5 µM): 94.2%; Inhibition of IL-8 (Immune cells (THP-1); 5 µM): 53.4%; Inhibition of IL-6 (Immune cells (THP-1); 10 µM): 84.5%; Inhibition of IL-8 (Immune cells (THP-1); 10 µM): 53.5%; Inhibition of IL-6 (Immune cells (THP-1); 20 µM): 100.0%; Inhibition of IL-8 (Immune cells (THP-1); 20 µM): 36.1%
